# In PubChem BioAssay AID179 (DTP/NCI, 2004):
# Where “and” joins values, the source holds several entries; their conditions need not be identical. Identical values can stand only once. Calls of active or inactive are those of the source.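 The calls were made as follows: active = compounds giving half or more protection of infected cells from virus-caused growth loss, again on retest; inactive = the rest.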
# Tested on: CEM cells HIV-1 protection, formazan growth assay
# Experiment: NCI AIDS Antiviral Assay
# Conditions: for IC50: measured here: growth of uninfected CEM cells
# In short: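 Category rules: moderately active means at least 50% protection on retest, and confirmed active means 100% protection reproducibly. The underlying data came from a formazan growth assay in HIV-1-infected CEM cells.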
SMILES,EC50,IC50,outcome
CC(O)(CCCCCl)c1nc2ccccc2s1 (centres undefined),> 200 µM,60.3 µM,
Cc1ccc2c(c1)CC1(Cc3ccccc3C1=O)C2=O (centres undefined),> 200 µM,195 µM,
NCCS/C=C\C(=O)O,> 1700 µM,> 1700 µM,
O=c1c(SCc2ccccc2F)c(SCc2ccccc2F)cnn1-c1ccccc1,> 11.5 µM,4.9 µM,
N#CCCC1(CCC#N)CCCCCCCCC(CCC#N)(CCC#N)C(=O)C1=O,> 200 µM,> 200 µM,
CCN(CC)c1ccc(/C=C2\CCc3ccc([N+](=O)[O-])cc3C2=O)cc1,> 20 µM,1.07 µM,
O=C(NCP(=O)(c1ccccc1)c1ccccc1)OCc1ccccc1,> 200 µM,> 200 µM,
Cc1cc(C)nc(/C(=N\NC(N)=O)C(=O)Nc2nc3ccc(C)cc3s2)c1,> 661 µM,> 661 µM,
O=[N+]([O-])c1ccc(NCCS(=O)(=O)O)c([N+](=O)[O-])c1,> 794 µM,> 794 µM,
COc1ccccc1NC(=O)O/N=C(/Cl)C(C)C,> 200 µM,7.41 µM,
COc1cc(-c2cc(=O)c3c(OC)c(OC)c(OC)c(OC)c3o2)cc(OC)c1OC,> 200 µM,28.2 µM,
CCCCCC=C(c1cc(Cl)c(OC)c(C(=O)NC)c1)c1cc(Cl)c(OC)c(C(=O)NC)c1,> 38 µM,20.4 µM,
CC1(C)CC(C2CC(C)(C)CC(C)(C)[C@H]2O)[C@@H](O)C(C)(C)C1 (some centres undefined),> 12 µM,> 12 µM,
CC1=NN(C(=O)CC(=O)Nc2cccc(C)c2)C(=O)C1N=Nc1ccc(C(=O)O)cc1 (centres undefined),> 200 µM,28.2 µM,
COC(NC(=O)Nc1ccccc1C)(C(F)(F)F)C(F)(F)F,> 200 µM,57.5 µM,
O=C1c2ccccc2C=c2c1nc1c(O)ccc3cccc2c31,> 100 µM,15.5 µM,
S=C(NC1CCCCC1)SSSSC(=S)NC1CCCCC1,> 91.2 µM,33.1 µM,
COC(=O)[C@H](CO)NC(=O)CC/C(C)=C/c1ccccc1,> 200 µM,191 µM,

SMILES,EC50,IC50,outcome
COc1ccc(-n2c(=O)n(C)c(=O)n2-c2ccc(OC)cc2)cc1,> 200 µM,> 200 µM,
CC(C)CCCC(C)[C@H]1CC[C@H]2[C@@H]3CC[C@H]4C[C@@H](CCC=C(c5cc(Cl)c(OCc6ccccc6[N+](=O)[O-])c(C(=O)O)c5)c5cc(Cl)c(OCc6ccccc6[N+](=O)[O-])c(C(=O)O)c5)CC[C@]4(C)[C@H]3CC[C@]12C (some centres undefined),> 200 µM and 120 µM,> 200 µM and 166 µM,inactive
Nc1nnc2c(n1)[nH]c1ccccc12,> 74.1 µM,> 74.1 µM,
O=c1[nH]c2nc3ccccc3c(=O)n2/c1=C/c1ccc(O)cc1,> 200 µM,52.5 µM,
O=C(O)/C=C\C(=O)c1ccc(Cl)cc1,> 324 µM,58.9 µM,
COC(=O)C(Cc1ccc2c(c1)CCC2)Cc1ccc2c(c1)CCC2,> 200 µM,112 µM,
CS(=O)(=O)CS(=O)(=O)OCCCl,> 1050 µM,182 µM,
Nc1nc(NCCOCP(=O)(O)O)c(C=O)c(=O)[nH]1,> 200 µM,> 200 µM,
O=C(c1cccs1)N1CCc2ccccc2C1,> 162 µM,107 µM,
CC[C@@]1(OC(=O)CN(C)C)C(=O)OCc2c1cc1n(c2=O)Cc2cc3ccccc3nc2-1,> 10 µM,0.0229 µM,
O=[N+]([O-])c1ccc(CN(CCCl)OCCCl)cc1,> 200 µM,37.2 µM,
CCC1(O)C(=O)OCc2c1cc1n(c2=O)Cc2cc3cc4c(cc3nc2-1)OCO4 (centres undefined),> 0.1 µM,0.00562 µM,
CC(C)C12NC(=O)NC(=O)N1CCS2 (centres undefined),,,inactive
COc1cc2c(cc1OC)[C@H]1C(COC(=O)c3ccccc3)CSC(=Nc3ccccc3)N1CC2 (some centres undefined),> 10.2 µM,> 10.2 µM,
COc1ccc(NC(=O)CC/C(CC(=O)c2ccco2)=N/NC(N)=S)cc1,,,inactive
Cc1cscc(C)c1=S,> 195 µM,> 195 µM,
CC1(C)O[C@@H](CO)[C@H]([C@@]23OC[C@H]4OC(C)(C)OC4[C@@H]2OC(C)(C)O3)O1 (some centres undefined),> 200 µM,> 200 µM,
